According to patent US20220127297A1, “Novel Antibacterial 3"-Derivatives Of 4,6-Disubstituted 2,5-Dideoxystreptamine Aminoglycoside Antibiotics” (AGILeBiotics B.V., priority 2018, published 2022):
≈ marks a conversion by molar mass, not a printed value.

System: E. coli (AAC(3)III)
Assay: MIC 50, broth micro-dilution, E. coli expressing AAC(3)III
Type: cell-based, Escherichia coli
Source text: Cloning resistant enzymes. An Escherichia coli codon optimized gene encoding AAC(3)-III (GenBank acc.nr. X55652.1; SEQ ID NO:1), including a promoter and terminator sequence, was synthesized by Integrated DNA Technologies, Belgium. The synthesized gene and pBluescript II KS(+) plasmid were digested using the restriction enzymes SacI and SalI, and purified from a 1% TBE-agarose gel using the illustra Gel Band purification kit. The purified linear plasmid and T4 DNA ligase were used to ligate aac(3)-III under control of the constitutive lipoprotein Ipp promoter and ribosomal RNA rrnC terminator, resulting in pBlue_Ipp_aacC3_rrnC.
Plasmid transformation. Approximately 500 ng of the pET-9b(+) (Cat. No. 69432-3, Merck), pAT21-1 (provided by Prof. Dr. Patrice Courvalin, M.D., Pasteur Institute, France; prepared according to Trieu-Cuot et. al, Mol. Gen. Genet. 198(2), 348 (1985)), pBluescript::AAC(6′)-Ie/APH(2″)-Ia (provided by Prof. Dr. Sergei Vakulenko, M.D., University of Notre Dame, Ind., USA; prepared according to S. B. Vakulenko et. al., J. Biol. Chem. 287 (52), 43262 (2012)), pBlue_lpp_aacC3_rrnC and pSET152 (Cat. No. PVT3395, Life Science Market; prepared according to Bierman et al., Gene 116 (1), 43 (1992)) plasmids, encoding APH(3′)-Ia (SEQ ID NO:2), APH(3′)-IIIa (SEQ ID NO:3), AAC(6′)Ie-APH(2″)-Ia (SEQ ID NO:4), AAC(3)-III (SEQ ID NO:1), and AAC(3)-IV (SEQ ID NO:5) respectively, were individually incubated in a vial of competent cells for 15 min on ice. The cells were subsequently heated to 42° C. for 90 s, and cooled on ice for 1 min. After addition of 900 μL LB, the cells were incubated for 1 h at 37° C. and 200 rpm. Cells were plated on LB-agar supplemented with 50 μg/mL KanaA and incubated for 18 h at 37° C. The next day, a single colony was inoculated in 5 mL LB supplemented with 50 μg/mL and grown for 18 h at 37° C. and 200 rpm. A 200 μL sample of each culture was diluted with 200 μL of 40% v/v glycerol in water, and stored at −80° C. The plasmid was purified from the remaining culture using the Plasmid Miniprep kit. Plasmid DNA was investigated by Eurofins Genomics (Germany) to confirm the identity of the aminoglycoside resistance genes.
3.1 Against E. coli Strains
Tested reference compounds. Amikacin sulfate (Cat. No. 01693, Chem-Impex), Gentamicin sulfate (Cat. No. G4918, Sigma Aldrich).
Microbial strains. E. coli ATCC 25922, E. coli ATCC 25922/pET-9b(+), E. coli ATCC 25922/pAT21-1, E. coli ATCC 25922/pBluescript::AAC(6′)-Ie/APH(2″)-Ia, E. coli ATCC 25922/pBlue_lpp_aacC3_rrnC, E. coli ATCC 25922/pSET152.
Culture media and equipment. BBL™ Mueller Hinton Broth 2 (Lot. BCBW1143, Cat. No. 70192, Sigma); Kanamycin A (Cat. No. A1493, AppliChem); 96-well deep well plate, 1 mL (Cat. No. 0030506.200, Eppendorf); Plate lids (Cat. No. 0030131.525, Eppendorf); 96-well plate, F-bottom (Cat. No. 781602, Brand; Incubator, Infors Multitron Pro); Laminar flow (Heraeus KS12); UV/VIS meter (Eppendorf BioPhotometer Plus); Platereader (Tecan Sunrise).
Compound preparation. Compounds were prepared in MH2 media at a concentration of 5 mM and stored at 4° C. For testing, solutions of 128 μM were prepared in MH2. Out of these working solutions, 400 μL was transferred to wells in the first column of 96-well deep well plates. Each compound was transferred in triplicate. Plates were previously filled with 200 μL of MH2 media in all wells except for the wells in the first column. After compound and antibiotic addition, the compounds were serial two-fold diluted by transferring 200 μL from the first to the second column, then from the second to the third column and so on. Finally, 200 μL was removed from the last column.
Inoculum preparation. Microorganisms used were all revived from 20% glycerol (40% v/v glycerol in water was diluted with MH2) storage at −80° C. by inoculating them in 5 mL MH2. inoculums of E. coli containing a plasmid were selected for by adding 50 μg/mL KanaA.

[1] = ATCC25922 harboring plasmid encoding AAC(3)III
[2] = Escherichia coli, ATCC25922, ATCC25922 harboring plasmid encoding AAC(3)III

| Structure (SMILES) | MIC50 [1] [µM] | MIC50 [2] [µM] |
| --- | --- | --- |
| NCC[C@H](O)C(=O)N[C@@H]1C[C@H](N)[C@@H](O[C@H]2O[C@H](CN)[C@@H](O)[C@@H](O)[C@H]2O)[C@H](O)[C@H]1O[C@H]1O[C@H](CO)[C@@H](O)[C@H](N)[C@H]1O [ABX3002, 3′Epi-KanaA-AHB] | 16 (≈ 9.37 µg/mL) |  |
| N=C(N)NC1[C@@H](O)C(OC2[C@@H](F)[C@H](O[C@H]3OC(CN)[C@@H](O)[C@H](O)C3O)C(N)C[C@H]2NC(=O)[C@@H](O)CCN)O[C@H](CO)[C@H]1O (stereo partly drawn) [ABX3003, 3′epi-KanaA-AHB-F-Gua] |  | 1 (≈ 0.63 µg/mL) |
| NCCC(O)C(=O)NC1CC(N)C(OC2OC(CN)C(O)C(O)C2O)C(F)C1OC1OC(CO)C(O)C(N)C1O (stereo not drawn) [ABX3005, 3′Epi-KanaA-AHB-F] | 4 (≈ 2.35 µg/mL) |  |
| NCCC(O)C(=O)NC1CC(N)C(OC2OC(CN)C(O)C(O)C2N)C(O)C1OC1OC(CO)C(O)C(N)C1O (stereo not drawn) [ABX4001, KanaB-AHB] | 1 to 2 |  |
| NCC[C@H](O)C(=O)N[C@@H]1CC(N)[C@@H](O[C@H]2OC(CN)[C@@H](O)[C@@H](O)C2N)[C@H](O)C1OC1O[C@H](CO)[C@@H](O)C(N)[C@H]1O (stereo partly drawn) [ABX4002, 3′Epi-KanaB-AHB] | 4 (≈ 2.34 µg/mL) |  |
| NCC[C@H](O)C(=O)N[C@@H]1CC(N)[C@@H](O[C@H]2OC(CN)[C@@H](O)[C@@H](O)C2N)[C@H](F)C1OC1O[C@H](CO)[C@@H](O)C(N)[C@H]1O (stereo partly drawn) [ABX4003, 3′Epi-KanaB-AHB-F] | 2 (≈ 1.17 µg/mL) |  |
| N=C(N)NC1[C@@H](O)C(OC2[C@@H](F)[C@H](O[C@H]3OC(CN)[C@@H](O)[C@H](O)C3N)C(N)C[C@H]2NC(=O)[C@@H](O)CCN)O[C@H](CO)[C@H]1O (stereo partly drawn) [ABX4004, 3′epi-KanaB-AHB-F-Gua] | 0.5 (≈ 0.314 µg/mL) |  |
| N=C(N)N[C@@H]1[C@@H](O)[C@@H](O[C@@H]2[C@@H](O)[C@H](O[C@H]3O[C@H](CN)[C@@H](O)[C@@H](O)[C@H]3N)[C@@H](N)C[C@H]2NC(=O)[C@@H](O)CCN)O[C@H](CO)[C@H]1O [ABX4005, 3′Epi-KanaB-AHB-Gua] | 4 (≈ 2.51 µg/mL) |  |
| N=C(N)NC1[C@@H](O)C(OC2[C@@H](F)[C@H](O[C@H]3OC(CN)[C@@H](O)[C@H](O)C3N)C(N)C[C@H]2NC(=O)[C@@H](O)CCN)O[C@H](CO)[C@H]1O (stereo partly drawn) [ABX4006, KanaB-AHB-F-Gua] |  | 0.25 (≈ 0.157 µg/mL) |
| NCCC(O)C(=O)NC1CC(N)C(OC2OC(CN)C(O)C(O)C2N)C(F)C1OC1OC(CO)C(O)C(N)C1O (stereo not drawn) [ABX4007, KanaB-AHB-F] | 1 (≈ 0.587 µg/mL) |  |
| N=C(N)NC1[C@@H](O)C(OC2[C@@H](O)[C@H](O[C@H]3OC(CN)[C@@H](O)[C@H](O)C3N)C(N)C[C@H]2NC(=O)[C@@H](O)CCN)O[C@H](CO)[C@H]1O (stereo partly drawn) [ABX4009, KanaB-AHB-Gua] | 1 to 2 |  |
| NCC[C@H](O)C(=O)N[C@@H]1CC(N)[C@@H](O[C@H]2OC(CN)[C@@H](O)CC2N)[C@H](O)C1OC1O[C@H](CO)[C@@H](O)C(N)[C@H]1O (stereo partly drawn) [ABX5004, Tobra-AHB] | 1 (≈ 0.569 µg/mL) |  |
| N=C(N)NC1[C@@H](O)C(OC2[C@@H](O)[C@H](O[C@H]3OC(CN)[C@@H](O)CC3N)C(N)C[C@H]2NC(=O)[C@@H](O)CCN)O[C@H](CO)[C@H]1O (stereo partly drawn) [ABX5005, Tobra-AHB-Gua] | 0.5 (≈ 0.305 µg/mL) |  |
| N=C(N)NC1C(O)[C@@H](CO)OC(OC2C(F)[C@H](O[C@H]3OC(CN)[C@@H](O)CC3N)C(N)C[C@H]2NC(=O)[C@@H](O)CCN)[C@@H]1O (stereo partly drawn) [ABX5006, Tobra-AHB-F-Gua] |  | 0.25 (≈ 0.153 µg/mL) |
| N=C(NCCN)NC1C(O)[C@@H](CO)OC(OC2C(F)[C@H](O[C@H]3OC(CN)[C@@H](O)CC3N)C(N)C[C@H]2NC(=O)[C@@H](O)CCN)[C@@H]1O (stereo partly drawn) [ABX5020, Tobra-AHB-F-Gua-2-amino-ethyl] |  | 0.25 to 0.5 (≈ 0.164 to 0.328 µg/mL) |
| NCC[C@H](O)C(=O)N[C@@H]1CC(N)[C@@H](O[C@H]2OC(CN)[C@@H](O)CC2N)[C@H](F)C1OC1O[C@H](CO)[C@@H](O)C(N)[C@H]1O (stereo partly drawn) [ABX5024, Tobra-AHB-F] | 1 (≈ 0.571 µg/mL) |  |
| CC(C)(C)CCNC(=N)NC1[C@@H](O)C(OC2[C@@H](F)[C@H](O[C@H]3OC(CN)[C@@H](O)CC3N)C(N)C[C@H]2NC(=O)[C@@H](O)CCN)O[C@H](CO)[C@H]1O (stereo partly drawn) [ABX5025, Tobra-AHB-F-Gua 2-tBu-ethyl] |  | 0.5 (≈ 0.348 µg/mL) |
| N=C(NC[C@@H]1CCCN1)NC1[C@@H](O)C(OC2[C@@H](F)[C@H](O[C@H]3OC(CN)[C@@H](O)CC3N)C(N)C[C@H]2NC(=O)[C@@H](O)CCN)O[C@H](CO)[C@H]1O (stereo partly drawn) [ABX5026, Tobra-AHB-F-Gua (S) pyrrolidine-2-yl-methyl] |  | 0.25 (≈ 0.174 µg/mL) |
| N=C(NCC1CC1)NC1[C@@H](O)C(OC2[C@@H](F)[C@H](O[C@H]3OC(CN)[C@@H](O)CC3N)C(N)C[C@H]2NC(=O)[C@@H](O)CCN)O[C@H](CO)[C@H]1O (stereo partly drawn) [ABX5027, Tobra-AHB-F-Gua cyclopropylmethyl] |  | 0.25 (≈ 0.167 µg/mL) |
| N=C(NCCO)NC1[C@@H](O)C(OC2[C@@H](F)[C@H](O[C@H]3OC(CN)[C@@H](O)CC3N)C(N)C[C@H]2NC(=O)[C@@H](O)CCN)O[C@H](CO)[C@H]1O (stereo partly drawn) [ABX5029, Tobra-AHB-F-Gua 2-hydroxy-ethyl] |  | 0.5 (≈ 0.328 µg/mL) |
| N=C(NCCCN)NC1[C@@H](O)C(OC2[C@@H](F)[C@H](O[C@H]3OC(CN)[C@@H](O)CC3N)C(N)C[C@H]2NC(=O)[C@@H](O)CCN)O[C@H](CO)[C@H]1O (stereo partly drawn) [ABX5030, Tobra-AHB-F-Gua-3-amino-propyl] |  | 0.25 (≈ 0.167 µg/mL) |
| CNCCNC(=N)NC1[C@@H](O)C(OC2[C@@H](F)[C@H](O[C@H]3OC(CN)[C@@H](O)CC3N)C(N)C[C@H]2NC(=O)[C@@H](O)CCN)O[C@H](CO)[C@H]1O (stereo partly drawn) [ABX5038, Tobra-AHB-F-Gua 2-(methylamino)ethyl] |  | 0.25 (≈ 0.167 µg/mL) |
| N=C(NC[C@@H]1CCNC1)NC1[C@@H](O)C(OC2[C@@H](F)[C@H](O[C@H]3OC(CN)[C@@H](O)CC3N)C(N)C[C@H]2NC(=O)[C@@H](O)CCN)O[C@H](CO)[C@H]1O (stereo partly drawn) [ABX5039, Tobra-AHB-F-Gua (R) pyrrolidine-3-ylmethyl] |  | 0.25 (≈ 0.174 µg/mL) |
| N=C(NC[C@@H]1CNCCO1)NC1[C@@H](O)C(OC2[C@@H](F)[C@H](O[C@H]3OC(CN)[C@@H](O)CC3N)C(N)C[C@H]2NC(=O)[C@@H](O)CCN)O[C@H](CO)[C@H]1O (stereo partly drawn) [ABX5040, Tobra-AHB-F-Gua (S) morpholin-2-yl methyl] |  | 0.25 (≈ 0.178 µg/mL) |
| N=C(NCCCO)NC1[C@@H](O)C(OC2[C@@H](F)[C@H](O[C@H]3OC(CN)[C@@H](O)CC3N)C(N)C[C@H]2NC(=O)[C@@H](O)CCN)O[C@H](CO)[C@H]1O (stereo partly drawn) [ABX5041, Tobra-AHB-F-Gua 3-hydroxy-propyl] |  | 0.5 (≈ 0.335 µg/mL) |
| N=C(NC[C@H]1CCNC1)NC1[C@@H](O)C(OC2[C@@H](F)[C@H](O[C@H]3OC(CN)[C@@H](O)CC3N)C(N)C[C@H]2NC(=O)[C@@H](O)CCN)O[C@H](CO)[C@H]1O (stereo partly drawn) [ABX5042, Tobra-AHB-F-Gua (S) pyrrolidine-3-ylmethyl] |  | 0.125 (≈ 0.087 µg/mL) |
| N=C(NC[C@H]1CNCCO1)NC1[C@@H](O)C(OC2[C@@H](F)[C@H](O[C@H]3OC(CN)[C@@H](O)CC3N)C(N)C[C@H]2NC(=O)[C@@H](O)CCN)O[C@H](CO)[C@H]1O (stereo partly drawn) [ABX5043, Tobra-AHB-F-Gua (R) morpholin-2-yl methyl] |  | 0.25 (≈ 0.178 µg/mL) |
